# In US20100062441A1, “C-MET MUTATIONS AND USES THEREOF” (priority 2007, published 2010):
# pIC50: −log10 of the molar value.
# Legend:
# SCCHN cell lines = test: Cell motility and migration; format: cell-based, human
# Source text: c-Met is known to have a significant role in cell scattering and possibly metastatic spread (Ren et al., Clin Cancer Res, 11, (17), 6190-7 (2005) and Endo, et al., Hum Pathol, 37, (8), 1111-6 (2006)). Here, the effects of c-Met suppression on cell motility and migration as a surrogate marker for metastatic spread was investigated. […] The degree of downstream modulation varied by cell line.
# [1] = tested on: melanoma cell lines that expressed c-Met; test: Cell growth analysis (cell counting); format: cell-based; conditions: Homo sapiens; 96 hrs, MEM with 10% serum
# Experimental: For measuring the effect of SU11274 on growth of melanoma cells, MM-AN, MU, PM-WK, MM-RU, MM-MC and RPM-EP cells were plated at 6×10^4 cells in 60 mm dishes in MEM with 10% serum. After 24 hrs different concentrations of SU11274 were added and after 96 hrs cells were trypsinized and counted in a cell counter (Beckman Coulter). Each data point was repeated in triplicate.
# [2] = tested on: MITF, tyrosinase, gp-100, MART-1; test: Immunoblotting of melanoma differentiation proteins, densiometric analysis; format: cell-based, human; conditions: 12 hrs after treatment; 10 μM SU11274
# Source text: SU11274: [(3Z)-N-(3-chlorophenyl)-3-({3,5-dimethyl-4-[(4-methylpiperazin-1-yl)carbonyl]-1H-pyrrol-2-yl}methylene)-N-methyl-2-oxo-2,3-dihydro-1H-indole-5-sulfonamide] (obtained from Pfizer Inc, San Diego, Calif.) was suspended in DMSO and kept in small aliquots at −20 degrees. Phosphospecific antibody to pY1230/1234/1235 (autophosphorylation site) was obtained from Biosource International, Camarillo, Calif. Phosphospecific antibodies for pS473 on AKT and pT421/pS424 on p70 S6-Kinase were obtained from Cell Signaling, Beverly, Mass. Total c-Met and BCLXL antibodies were obtained from Santa Cruz Biotechnology, Santa Cruz, Calif. and β-actin from Sigma Aldrich (St. Louis, Mo.). For detecting melanoma differentiation proteins the following antibodies were used anti-tyrosinase monoclonal antibody (clone T311, Nova-castra, New Castle upon Tyne, UK), anti-gp-100 monoclonal antibody (MO 634, Dako corporation, Carpinteria, Calif.) and anti-MART-1/Melan-A monoclonal antibody (clone M2-7C10, Signet, Dedham, Mass.).
# Cells were lysed in lysis buffer containing 20 mM Tris, pH 8.0; 150 mM NaCl, 10% glycerol, 1% NP40, 0.42% NaF, 1 mM PMSF, 1 mM Na3V04, 10 μl/ml Protease inhibitor cocktail (Sigma Aldrich, St. Louis, Mo.) as described previously (Maulik et al., Clin Cancer Res, 8: 620-7 (2002)). Cell lysates were separated by 7.5% or 10% SDS-PAGE electrophoresis under reducing conditions. Proteins were transferred to an immobilization membrane (Bio-Rad Laboratories, Hercules, Calif.) and immunoblotted using the enhanced chemiluminescence technique (PerkinElmer Life and analytical Sciences, Torrence, Calif.).
# siRNA against c-Met was obtained from Dharmacon (Lafayette, Colo.). Briefly four pooled SiRNA duplexes were transiently transfected into MU melanoma cells by the Dharmacon protocol utilizing Oligofectamine obtained from Invitrogen (Carlsbad, Calif.). Mock transfection was done in parallel using SignalSilence control SiRNA (Cell Signaling Technology) as negative control. For studies on the effect of Si RNA on differentiation proteins MU melanoma cells were transfected with Si RNA as described above and cell lysates were prepared after 12 hrs and immunoblotting performed as described above.
# It was hypothesized that SU11274 could not only induce a differentiated phenotype, but also MITF, tyrosinase and other melanocyte associated differentiation markers. […] The increase in the level of various differentiation proteins was determined by densiometric anaylsis after treatment with 10 μM SU11274.
# The effect of si RNA against c-Met was also studied on the proliferation and differentiation of MU melanoma cells. […] The increase in the level of various differentiation proteins was determined by densiometric anaylsis after treatment with c-Met si RNA.
# [3] = tested on: c-Met dependent signaling in MM-MC melanoma cells; test: Phosphorylation of c-Met and signaling molecules via HGF, immunoblotting; format: cell-based, human; conditions: MM-MC (c-Met mutation)
# Experimental: (§1) MU and MC cells that expressed c-Met were deprived of growth factors by incubation in serum free medium containing 0.5% BSA for 24 hours with or without SU11274 (5 μM). After treatment with or without SU11274 in serum free medium, cells were stimulated with or without HGF (EMD Biosciences, San Diego, Calif.) at 40 ng/ml for 7.5 minutes at 37° C. After harvesting, the cells were subjected to the standard procedures of immunoblotting. Antibodies specifically against phosphorylated c-Met, and other proteins are as described above.
# (§2) The ability of SU11274 to inhibit activation of c-Met was examined by immunoblotting. Treatment with HGF increased the autophosphorylation of c-MET at the activation loop site phospho-epitope [pY1230/1234/1235]. […] HGF binding to c-Met activated its' tyrosine kinase, AKT (S-473) and S-6 kinase (T-421/S424).
# [4] = tested on: c-Met dependent signaling in MU melanoma cells; test: as above; format: cell-based, human
# Experimental: as §1, §2
compound,measurement,setting,value
"Cc1[nH]c(/C=C2\C(=O)Nc3ccc(S(=O)(=O)N(C)c4cccc(Cl)c4)cc32)c(C)c1C(=O)N1CCN(C)CC1 [SU11274, (3Z)-N-(3-chlorophenyl)-3-({3,5-dimethyl-4-[(4-methylpiperazin-1-yl)carbonyl]-1H-pyrrol-2-yl}methylene)-N-methyl-2-oxo-2,3-dihydro-1H-indole-5-sulfonamide]",cell motility,SCCHN cell lines,marked decrease
same,pIC50,[1],5.60 to 6.00
same,increase in levels of MART-1,[2],2 fold
same,increase in levels of MITF,[2],3 fold
same,increase in levels of gp-100,[2],6 fold
same,increase in levels of tyrosinase,[2],12 fold
same,phosphorylation of c-Met and AKT,[3],inhibited
same,BCLXL level,[4],downregulated
same,"HGF induced phosphorylation of c-Met, AKT and S6 kinase",[4]; 5 μM,completely inhibited
same,autophosphorylation of c-MET at activation loop site [pY1230/1234/1235],[4]; HGF stimulated,completely abolished
same,phosphorylation of c-Met and AKT,[4]; MU (no c-Met mutation),inhibited
